Data reported in PMC5114681, “Molecular Mechanism of Action of Antimalarial Benzoisothiazolones: Species-Selective Inhibitors of the Plasmodium spp. MEP Pathway enzyme, IspD” (Scientific Reports, 2016).
“Also recorded” adds a separate entry of the source.

Experiments:
PfIspD = PfIspD (Plasmodium falciparum, UniProt Q8I273); experiment: biochemical; settings: mean and SEM; n ≥ 3
Procedure: (§1) Phosphate released by IspD was quantified using the EnzChek Phosphate Assay Kit (Invitrogen, Life Technologies), as previously described. 2-Amino-6-mercapto-7-methylpurine riboside (MESG) and purine nucleoside phosphorylase (PNP) were diluted and stored according to the manufacturer’s instructions. Final concentrations of reagents were as follows: 100 mM NaCl, 25 mM Tris pH 7.5, 7.5 mM MgCl2, 1 U/ml PNP, 0.1 U/mL yeast inorganic pyrophosphatase (New England Biolabs). […] Reactions were performed in 50 μL final volumes in 96-well clear flat bottom plates. In general, enzymes, buffers, and inhibitors were pre-warmed approximately 15 minutes at 37 °C, and reactions were then initiated by addition of the MEP substrate. […] Assays using E. coli IspD used 7.5 nM EcIspD-wt or 75 nM EcIspD-A14C. Absorbance at 360 nm was measured over time on a BMG POLARStar plate reader, preheated to 37 °C. Nonlinear regression analysis was performed using GraphPad Prism software. […] Slopes of changing absorbance values were converted to (μM MEP) (μM enzyme)^−1 s^−1 using a phosphate standard curve.

PvIspD = PvIspD (Plasmodium vivax, UniProt A5K9U5); experiment: IspD enzyme assay (EnzChek phosphate release), recombinant PvIspD; format: biochemical, P. vivax
Procedure: as §1

P. falciparum strain 3D7 [1] = experiment: Parasite sensitivity assay (PicoGreen, 72 hours), strain 3D7; format: cell-based; settings: Plasmodium falciparum, mean and SEM, n ≥ 3, read-out: (3D7) EC50, P. falciparum growth in culture
Procedure: (§2) Unless otherwise specified, P. falciparum parasites were cultured as previously described, in a 2% suspension of human erythrocytes in RPMI-1640 medium (Sigma Aldrich) supplemented with 27 mM sodium bicarbonate, 11 mM glucose, 5 mM HEPES, 1 mM sodium pyruvate, 0.37 mM hypoxanthine, 0.01 mM thymidine, 10 μg ml^−1 gentamicin and 0.5% Albumax (Life Technologies). Cultures were maintained in 5% O2/5% CO2/90% N2 at 37 °C. Parasite growth was monitored by microscopy of Giemsa-stained parasites. 3D7 strain parasites were obtained from the Malaria Research and Reference Reagent Resource Center, ATCC, Manassas, Virginia. D6 and 7G8 strains were obtained through BEI Resources Repository, NIAID, NIH: Plasmodium falciparum, Strain D6, MRA-285, contributed by D.E. Kyle; Plasmodium falciparum, Strain 7G8, MRA-152, contributed by David Walliker. The IPC 5202 strain was provided by the Malaria Research and Reference Reagent Resource Center (MR4) for distribution by BEI Resources NIAID, NIH: Plasmodium falciparum, Strain IPC 5202, also known as CAM3.IR539T; MRA-1240, contributed by Didier Ménard.
(§3) Asynchronous cultures of P. falciparum strain 3D7 were diluted to 1% parasitemia and cultured at indicated concentrations of inhibitor compounds in 100 μL culture volumes. During rescue experiments, parasite growth medium was supplemented with 200 μM isopentenyl pyrophosphate (IPP; Echelon Biosciences). After 72 hours, parasite growth was quantified using PicoGreen dye (Invitrogen) to measure DNA content as previously described. PicoGreen fluorescence was measured (485 nm excitation/528 nm emission) in a POLARStar Omega microplate reader (BMG Labtech).

P. falciparum IspD = tested on: P. falciparum IspD; parameters: method as in PMID 26783558, PMID 25367906, PMID 24247137, PMID 25754494; settings: known IspD inhibitors, Fig. 2; cited from earlier work
A. thaliana IspD = tested on: A. thaliana IspD; parameters: method as in PMID 24446431, PMID 21766403, PMID 22975264; settings: known IspD inhibitors, Fig. 2; cited from earlier work
P. falciparum strain D6 = experiment: Parasite sensitivity assay, strain D6 (mefloquine-resistant); format: cell-based; settings: Plasmodium falciparum, mean and SEM, read-out: Whole Cell Growth Inhibition EC50
Procedure: as §2, with “The IPC 5202 strain was provided by the Malaria Research and Reference Reagent Resource Center (MR4) for distribution by BEI Resources NIAID, NIH: Plasmodium falciparum, Strain IPC 5202, also known as CAM3.IR539T; MRA-1240, contributed by Didier Ménard.” left out
as §3, with “During rescue experiments, parasite growth medium was supplemented with 200 μM isopentenyl pyrophosphate (IPP; Echelon Biosciences).” left out

P. falciparum strain 7G8 = experiment: Parasite sensitivity assay, strain 7G8 (multidrug (chloroquine)-resistant); format: cell-based; settings: Plasmodium falciparum, mean and SEM, read-out: Whole Cell Growth Inhibition EC50
Procedure: as §2, with “The IPC 5202 strain was provided by the Malaria Research and Reference Reagent Resource Center (MR4) for distribution by BEI Resources NIAID, NIH: Plasmodium falciparum, Strain IPC 5202, also known as CAM3.IR539T; MRA-1240, contributed by Didier Ménard.” left out
as §3, with “During rescue experiments, parasite growth medium was supplemented with 200 μM isopentenyl pyrophosphate (IPP; Echelon Biosciences).” left out

[2] = tested on: P. falciparum strain IPC 5202; experiment: Parasite sensitivity assay, strain IPC 5202 (artemisinin-resistant); format: cell-based; settings: Plasmodium falciparum, mean and SEM, read-out: Whole Cell Growth Inhibition EC50
Procedure: as §2, with “The IPC 5202 strain was provided by the Malaria Research and Reference Reagent Resource Center (MR4) for distribution by BEI Resources NIAID, NIH: Plasmodium falciparum, Strain IPC 5202, also known as CAM3.IR539T; MRA-1240, contributed by Didier Ménard.” left out
as §3, with “During rescue experiments, parasite growth medium was supplemented with 200 μM isopentenyl pyrophosphate (IPP; Echelon Biosciences).” left out

PfIspD-C202A = experiment: IspD enzyme assay, recombinant PfIspD-C202A mutant; format: biochemical, P. falciparum; settings: prolonged (50 min.) incubation
Procedure: as §1

EcIspD-wt = target: T1, EcIspD-wt (Escherichia coli, UniProt Q46893); experiment: IspD enzyme assay, recombinant EcIspD-wt; format: biochemical, E. coli
T1 construct: 6His; made in house; host or cells: Artic Express (DE3) RIL E. coli
Procedure: as §1

EcIspD-A14C = target: T2, EcIspD-A14C (Escherichia coli, UniProt Q46893, A14C); experiment: IspD enzyme assay, recombinant EcIspD-A14C mutant; format: biochemical, E. coli
T2 construct: Amplicons containing the entire E. coli IspD gene were generated; 6His (N); made in house; host or cells: Artic Express (DE3) RIL E. coli
Procedure: as §1

P. falciparum strain 3D7 [3] = experiment: Parasite growth inhibition with and without IPP supplementation (rescue); format: cell-based; settings: for IPP rescue of parasite growth: 200 μM IPP supplementation
Procedure: as §3

MEP pathway = experiment: MEP metabolite profiling (LC-MS/MS of DOXP and MEcPP) in treated parasites; settings: 10 hours; for MEcPP levels compared to untreated parasites: 3 μM 8 or 5 μM FSM
[4] = Calculated ClogD and aqueous solubility (AstraZeneca algorithms); settings: predicted values
P. vivax IspD = tested on: P. vivax IspD; parameters: method as in PMID 24446431, PMID 21766403, PMID 22975264; settings: known IspD inhibitors, Fig. 2; cited from earlier work

Chain of PvIspD (A5K9U5 entry or part of it): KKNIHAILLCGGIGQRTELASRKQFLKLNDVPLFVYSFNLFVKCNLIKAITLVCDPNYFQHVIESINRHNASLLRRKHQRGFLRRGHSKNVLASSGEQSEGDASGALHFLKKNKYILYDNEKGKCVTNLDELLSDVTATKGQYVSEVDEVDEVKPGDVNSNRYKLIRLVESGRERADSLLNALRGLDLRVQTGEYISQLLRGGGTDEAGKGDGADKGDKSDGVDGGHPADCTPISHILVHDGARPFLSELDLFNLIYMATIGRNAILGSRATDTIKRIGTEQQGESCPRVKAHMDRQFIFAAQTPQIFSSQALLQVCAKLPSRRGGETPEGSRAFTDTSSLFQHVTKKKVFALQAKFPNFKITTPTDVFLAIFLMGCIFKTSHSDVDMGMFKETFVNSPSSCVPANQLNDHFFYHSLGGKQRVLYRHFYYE
Chain of PfIspD (Q8I273 entry or part of it): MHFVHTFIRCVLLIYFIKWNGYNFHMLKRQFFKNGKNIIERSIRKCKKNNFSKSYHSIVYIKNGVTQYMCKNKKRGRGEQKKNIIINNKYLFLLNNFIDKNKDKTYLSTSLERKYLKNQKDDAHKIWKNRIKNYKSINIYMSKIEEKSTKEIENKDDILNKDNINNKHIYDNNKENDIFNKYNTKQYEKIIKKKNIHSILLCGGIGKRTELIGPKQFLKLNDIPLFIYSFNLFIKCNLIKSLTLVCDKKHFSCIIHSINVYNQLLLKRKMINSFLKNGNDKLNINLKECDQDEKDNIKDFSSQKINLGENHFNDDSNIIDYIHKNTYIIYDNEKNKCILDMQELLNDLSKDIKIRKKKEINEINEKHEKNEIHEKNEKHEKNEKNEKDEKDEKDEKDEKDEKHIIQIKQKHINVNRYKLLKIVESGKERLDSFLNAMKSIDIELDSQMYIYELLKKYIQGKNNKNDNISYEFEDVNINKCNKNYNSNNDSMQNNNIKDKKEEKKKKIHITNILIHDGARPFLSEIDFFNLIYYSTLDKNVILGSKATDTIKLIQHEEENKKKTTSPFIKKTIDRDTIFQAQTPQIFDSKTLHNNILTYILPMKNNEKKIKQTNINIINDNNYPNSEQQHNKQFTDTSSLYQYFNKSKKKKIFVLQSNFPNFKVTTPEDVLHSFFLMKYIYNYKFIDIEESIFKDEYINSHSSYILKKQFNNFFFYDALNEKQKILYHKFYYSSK
T1 sequence (Q46893 whole entry): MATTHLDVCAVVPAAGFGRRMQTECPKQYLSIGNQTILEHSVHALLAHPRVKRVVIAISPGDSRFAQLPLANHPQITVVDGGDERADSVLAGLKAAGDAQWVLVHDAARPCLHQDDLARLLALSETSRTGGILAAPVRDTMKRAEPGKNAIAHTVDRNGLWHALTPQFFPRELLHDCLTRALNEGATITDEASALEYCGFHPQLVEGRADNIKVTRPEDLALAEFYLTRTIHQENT
T2 sequence (Q46893 whole entry A14C): as the sequence (Q46893 whole entry) above, with A14C counted along it

Row | SMILES | IC50 (PfIspD) | IC50 (PvIspD) | EC50 (P. falciparum strain 3D7 [1]) | IC50 (A. thaliana IspD) | further results
1 | O=c1c2ccccc2sn1-c1cccc(-c2ccc(CN3CCOCC3)cc2)c1 [compound 13, 2-(4’-(morpholinomethyl)-[1,1’-biphenyl]-3-yl)benzo[d]isothiazol-3(2H)-one] | 400 ± 82 nM | 50 ± 16 nM | 410 ± 82 nM |  | 
2 | O=c1c2ccccc2sn1-c1cccc(-c2ccc(C(F)(F)F)cc2)c1 [compound 10, 2-(4’-(trifluoromethyl)-[1,1’-biphenyl]-3-yl)benzo[d]isothiazol-3(2H)-one] | 270 ± 15 nM | 41 ± 18 nM | 650 ± 21 nM |  | 
3 | O=C(O)[C@@H]1Cc2c([nH]c3ccccc23)[C@@H](c2ccc(Cl)cc2Cl)N1 [compound 4, 1R,3S-MMV008138] |  |  |  |  | IC50 (P. falciparum IspD): 47 nM
4 | N#Cc1cnn2c(O)c(Cc3ccccc3)c(Cl)cc12 [3b] |  |  |  | 35 nM | 
5 | O=c1c2ccccc2sn1-c1cccc(-c2ccc(CN3CCC(F)CC3)cc2)c1 [compound 12, 2-(4’-((4-fluoropiperidin-1-yl)methyl)-[1,1’-biphenyl]-3-yl)benzo[d]isothiazol-3(2H)-one] | 860 ± 110 nM | 240 ± 100 nM | 320 ± 92 nM |  | 
6 | COc1ccc(-c2cccc(-n3sc4ccccc4c3=O)c2)cc1 [compound 8, 2-(4’-methoxy-[1,1’-biphenyl]-3-yl)benzo[d]isothiazol-3(2H)-one] |  |  |  |  | EC50 (P. falciparum strain D6): 800 ± 120 nM; EC50 (P. falciparum strain 7G8): 1020 ± 250 nM; EC50 [2]: 1380 ± 190 nM; decrease in sensitivity, PfIspD-C202A versus PfIspD-wt (PfIspD-C202A): 6 fold; inhibition of recombinant EcIspD (wild type) (EcIspD-wt): highly resistant to inhibition; IC50 (EcIspD-A14C): 440 ± 48 nM; IPP rescue of parasite growth (P. falciparum strain 3D7 [3]): did not observe rescue; also recorded: No rescue was observed; EC50 (P. falciparum strain 3D7 [3]; Plasmodium falciparum, 3D7, mean and SEM, n ≥ 3): 980 ± 240 nM; DOXP levels compared to untreated parasites (MEP pathway): not affected; MEcPP levels compared to untreated parasites (MEP pathway): Significant decreases
7 | COc1ccc2nc(NC(=O)c3cc(-c4ccccc4O)n[nH]3)sc2c1 [compound 2] |  |  |  | 1800 nM | 
8 | Oc1c(Cc2ccccc2)c(Cl)cc2ncnn12 [3a] |  |  |  | 140 nM | 
9 | CN1CCN(Cc2ccc(-c3cccc(-n4sc5ccccc5c4=O)c3)cc2)CC1 [compound 11, 2-(4’-((4-methylpiperazin-1-yl)methyl)-[1,1’-biphenyl]-3-yl)benzo[d]isothiazol-3(2H)-one] | 440 ± 75 nM | 62 ± 26 nM | 420 ± 6 nM |  | increase in predicted aqueous solubility compared to 9 [4]: 100 fold
10 | O=CN(O)CCCP(=O)(O)O [FSM, fosmidomycin, reference compound] |  |  |  |  | IPP rescue of parasite growth (P. falciparum strain 3D7 [3]): rescue; MEcPP levels compared to untreated parasites (MEP pathway): Significant decreases
11 | O=c1c2ccccc2sn1-c1cccc(-c2ccc(Cl)cc2)c1 [compound 9, 2-(4’-chloro-[1,1’-biphenyl]-3-yl)benzo[d]isothiazol-3(2H)-one] | 73 ± 20 nM | 57 ± 13 nM | 1100 ± 160 nM |  | 
12 | Oc1c(Br)cc(Br)cc1-c1[nH]c(Br)c(Br)c1Br [compound 1] |  |  |  | 13000 nM | IC50 (P. vivax IspD): 48000 nM
13 | Cc1ccc(-n2sc3ccccc3c2=O)cc1S(=O)(=O)N1CCOCC1 [compound 7] | 450 ± 79 nM | 45 ± 20 nM | 4300 ± 180 nM |  | 
